# Measured values published in patent US20250049967A1, “PET TRACERS FOR V[…] GAMMA1 RECEPTORS” (Hoffmann-La Roche Inc., priority 2022, published 2025).
# Assays:
# [1] = molecular target: human GABAA α1β3γ2 receptor (Homo sapiens (Human), UniProt P14867+P18507); test: Binding assay, competition for [^3H]Flumazenil, HEK293F cells; conditions: for γ2/γ1 Selectivity Ratio: Ki α1β3γ2 (nM)/Ki α2β2γ1 (nM)
# Protocol: The affinity of compounds at GABAA γ2 subunit-containing receptors was measured by competition for [^3H]Flumazenil (81.1 Ci/mmol; Roche) binding to HEK293F cells expressing human (transiently transfected) receptors of composition α1β3γ2.
# Harvested pellets from HEK293F cells expressing the different GABAA γ2 receptor subtypes were resuspended in Mannitol Buffer pH 7.2-7.4 and processed as described above for the cells expressing the GABAA γ1 subunit-containing receptors.
# Assays were incubated to equilibrium for 1 hour at 4° C. and harvested onto GF/C uni-filters (Packard) by filtration using a Packard harvester and washing with ice-cold wash buffer (50 mM Tris; pH 7.5). After anhydrousing, filter-retained radioactivity was detected by liquid scintillation counting. Ki values were calculated using Excel-Fit (Microsoft) and are the means of two determinations.
# h-GABA-A α2β2γ1 receptor = h-GABA-A α2β2γ1 receptor (Homo sapiens (Human), UniProt P47869+Q8N1C3); test: Xenopus oocyte two-electrode voltage clamp electrophysiology, modulation of GABA EC20 current; format: cell-based; conditions: for Efficacy (GABA)%: % modulation of GABA EC20 = 100*(Fold increase−1), compound at 30-fold Ki α2β2γ1; for Potentiation of GABA-induced current in α2β2γ1 expressing oocytes: reference PAMs, GABA EC20
# Protocol: Xenopus laevis oocytes at maturation stages V-VI were used for the expression of cloned mRNA encoding GABAA receptor subunits. Oocytes ready for RNA micro-injection were bought from Ecocyte, Castrop-Rauxel, Germany and stored in modified Barth's medium (composition in mM: NaCl 88, KCl 1, NaHCO3 2.4, HEPES 10, MgSO4 0.82, CaNO3 0.33, CaCl2 0.33, pH=7.5) at 20° C. until the experiment.
# Oocytes were plated in 96-well plates for microinjection using the Roboinject automated instrument (MultiChannelSystems, Reutlingen, Germany). Approximately 50 nL of an aqueous solution containing the RNA transcripts for the subunits of the desired GABAA receptor subtype was injected into each oocyte. […] Oocytes were kept in modified Barth's medium (composition in mM: NaCl 88, KCl 1, NaHCO3 […], HEPES 10, MgSO4 0.82, CaNO3 0.33, CaCl2 0.33, pH=7.5) at 20° C. until the experiment.
# Electrophysiological experiments were performed using the Roboocyte instrument (MultiChannelSystems, Reutlingen, Germany) on days 3 to 5 after the micro-injection of mRNA. During the experiment the oocytes were constantly superfused by a solution containing (in mM) NaCl 90, KCl 1, HEPES 5, MgCl2 1, CaCl2 1 (pH 7.4). Oocytes were impaled by two glass microelectrodes (resistance: 0.5-0.8 MΩ) which were filled with a solution containing KCl 1M+K-acetate 1.5 M and voltage-clamped to −80 mV. The recordings were performed at room temperature using the Roboocyte two-electrode voltage clamp system (Multichannelsystem). After an initial equilibration period of 1.5 min GABA was added for 1.5 min at a concentration evoking approximately 20% of a maximal current response (EC20). After another rest interval of 2.5 min GABA was again added evoking a response of similar amplitude and shape. […] Current traces were recorded at a digitization rate of 10 Hz during and shortly before and after the GABA application.
# Each compound and concentration was tested on at least 3 oocytes. Different oocytes were used for different compound concentrations.
# For the analysis, the digitized current traces of the first and second GABA response were superimposed and, if necessary, rescaled to equal maximal amplitudes. The ratio between the two responses during the time interval of test compound application was calculated point by point. The extremum of the resulting “ratio trace” was taken as the efficacy (“Fold increase”) of the compound expressed as “% modulation of GABA EC20” (100*(Fold increase−1)).
# [2] = molecular target: human GABAA α1β2γ1 receptor (Homo sapiens (Human), UniProt P14867+Q8N1C3); test: Binding assay, competition for [^3H]RO7239181, membranes from HEK293F cells
# Protocol: (§1) Harvested pellets from HEK293F cells expressing the different GABAA receptor subtypes were resuspended in Mannitol Buffer pH 7.2-7.4 (Mannitol 0.29M, Triethylamine 10 mM, Acetic acid 10 mM, EDTA 1 mM plus protease inhibitors (20 tablets Complete, Roche Diagnostics Cat. No. 05 056 489 001 per liter)), washed two times and then resuspended at 1:10 to 1:15 dilution in the same buffer. Cell disruption was performed by stirring the suspension in a Parr vessel #4637 at 435 psi for 15 minutes, and then the suspensions were centrifuged at 1000×g for 15 minutes at 4° C. (Beckman Avanti J-HC; rotor JS-4.2). The supernatant (S1) was transferred in a 2 l Schott flask and the pellet (P1) was resuspended with Mannitol Buffer up to 175 ml. The resuspended pellet was transferred into a 250 ml Corning centrifugal beaker and centrifuged at 1500×g for 10 minutes at 4° C. (Beckman Avanti J-HC; rotor JS-4.2). The supernatant (S1) was then transferred in the 2 l Schott flask and the pellet was discarded. […] The P2 and P3 protein concentration was determined with the BIORAD Standard assay method with bovine serum albumin as standard and measured on the NANO-Drop 1000. […]
# (§2) Membrane homogenates were resuspended and polytronised (Polytron PT1200E Kinematica AG) in Potassium Phosphate 10 mM, KCl 100 mM binding buffer at pH 7.4 to a final assay concentration determined with a previous experiment. […]
# [3] = molecular target: human GABAA α2β2γ1 receptor (Homo sapiens (Human), UniProt P47869+Q8N1C3); test: as above
# Protocol: as §1, §2
# GABAA γ1 receptor [4] = molecular target: GABAA γ1 receptor (Mus musculus (Mouse), UniProt Q9R0Y8); test: In vitro autoradiography, coronal brain sections of GABAA γ1 knockout and wild-type mice; format: binding; conditions: 0.3 nM radioligand, 30 minutes room temperature, knockout vs wild-type mouse brain sections
# Protocol: Autoradiographical analyses of [^3H]-(I) and [^3H]-(II) were performed with coronal brain sections from GABAA γ1 receptor knockout mice (C57BL/6NTac-Gabrg1) and wild-type controls. Tissue sections (10 μm) were cut in a cryostat, thaw-mounted on microscope glass slides and incubated in incubation buffer (50 mM Tris-HCl, pH 7.4) containing 0.3 nM radioligand (molar activity 83 Ci/mmol and 81 Ci/mmol for [^3H]-(II) and [^3H]-(I), respectively) at room temperature for 30 minutes. After incubation, all sections were rinsed three times in ice-cold wash buffer (50 mM Tris-HCl, pH 7.4) for 10 minutes and dipped three times in distilled water at 4° C. Slide-mounted brain sections were dried in a ventilated fridge for at least 2 hours and exposed to a Fuji Imaging Plate for 5 days. The imaging plate was scanned at a resolution of 25 μm in a Fujifilm high-resolution plate scanner. Visualization and quantification of autoradiographies was performed by the MCID™ image analysis program.
# GABAA γ1 receptor [5] = test: In vivo PET scans in baboons, regional time-activity curves; set-up: species or system papio anubis olive brown baboons; conditions: baboon, intravenous bolus approx. 700 MBq, 90 min scan
# Protocol: PET imaging experiments were performed in male papio anubis olive brown baboons to examine the characteristics of [^11C]-(I) and [^11C]-(II) in vivo. The final radiotracer product was radiochemically pure (>95%) up to 40 min post its end of synthesis with an average final calculated specific activity of >555 GBq/μmol. The PET camera used was the Siemens HRRT with an in-plane field-of-view (FOV) of 30 cm and an axial FOV of 24 cm. Each dynamic PET scan started with an intravenous bolus injection of the radiotracer (approx. 700 MBq) and continued for 90 min in a 3D list mode. A set of volumes of interest (VOIs) for 16 brain regions were defined on MRIs of individual animals referring to a standard VOI template. VOIs were transferred to PET space using the coregistration parameters to generate time-activity curves (TACs) of brain regions.
# GABAA γ1 receptor (Mus musculus (Mouse), UniProt Q9R0Y8), sequence (Q9R0Y8 36-465 limits assumed): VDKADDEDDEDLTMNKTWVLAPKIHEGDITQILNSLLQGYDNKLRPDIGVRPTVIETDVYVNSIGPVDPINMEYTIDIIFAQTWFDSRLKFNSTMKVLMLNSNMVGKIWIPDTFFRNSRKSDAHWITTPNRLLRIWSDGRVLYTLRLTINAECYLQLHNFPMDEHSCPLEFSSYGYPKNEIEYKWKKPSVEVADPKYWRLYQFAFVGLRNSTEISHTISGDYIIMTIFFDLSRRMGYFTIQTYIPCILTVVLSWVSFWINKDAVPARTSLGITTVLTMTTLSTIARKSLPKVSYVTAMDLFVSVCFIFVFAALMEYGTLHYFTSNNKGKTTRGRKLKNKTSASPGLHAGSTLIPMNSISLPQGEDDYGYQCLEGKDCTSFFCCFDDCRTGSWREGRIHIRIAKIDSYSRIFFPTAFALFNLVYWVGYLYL
smiles,measurement,setting,value
"CN1C(=O)CN=C(c2cc(O)ccc2F)c2c1ccc(Cl)c2Cl [Example 1, 6,7-dichloro-5-(2-fluoro-5-hydroxy-phenyl)-1-methyl-3H-1,4-benzodiazepin-2-one]",γ2/γ1 Selectivity Ratio,[1],12.7
same,Efficacy (GABA)%,h-GABA-A α2β2γ1 receptor,90%
"Cc1ccc2c(c1Cl)C(c1cc(O)ccc1F)=NCC(=O)N2C [Example 2, 6-chloro-5-(2-fluoro-5-hydroxy-phenyl)-1,7-dimethyl-3H-1,4-benzodiazepin-2-one]",γ2/γ1 Selectivity Ratio,[1],39.0
same,Efficacy (GABA)%,h-GABA-A α2β2γ1 receptor,70%
CN1C(=O)CN=C(c2ccccc2F)c2cc([N+](=O)[O-])ccc21 [Flunitrazepam],Potentiation of GABA-induced current in α2β2γ1 expressing oocytes,h-GABA-A α2β2γ1 receptor,~60%
Cc1ncc2n1-c1ccc(Cl)cc1C(c1ccccc1F)=NC2 [Midazolam],Potentiation of GABA-induced current in α2β2γ1 expressing oocytes,h-GABA-A α2β2γ1 receptor,~60%
"CN1C(=O)CN=C(c2cc(O)ccc2Cl)c2cc(Cl)ccc21 [RE-A, reference compound]",Ki,[2],6.84 nM
same,Ki,[3],2.79 nM
same,Ki,[1],1.5 nM
same,γ2/γ1 Selectivity Ratio,[1],0.54
Cc1nnc2n1-c1ccc(Cl)cc1C(c1ccccc1Cl)=NC2 [Triazolam],Potentiation of GABA-induced current in α2β2γ1 expressing oocytes,h-GABA-A α2β2γ1 receptor,~60%
"[3H]C([3H])([3H])N1C(=O)CN=C(c2cc(O)ccc2F)c2c1ccc(Cl)c2Cl [[^3H]-(I), 6,7-Dichloro-5-(2-fluoro-5-hydroxy-phenyl)-1-([^3H3]methyl)-3H-1,4-benzodiazepin-2-one]",Specific binding in the amygdala,GABAA γ1 receptor [4],65%
"[3H]C([3H])([3H])N1C(=O)CN=C(c2cc(O)ccc2F)c2c1ccc(C)c2Cl [[^3H]-(II), 6-Chloro-5-(2-fluoro-5-hydroxy-phenyl)-7-methyl-1-([^3H3]methyl)-3H-1,4-benzodiazepin-2-one]",Specific binding in the amygdala,GABAA γ1 receptor [4],97%
"[11CH3]N1C(=O)CN=C(c2cc(O)ccc2F)c2c1ccc(Cl)c2Cl [[^11C]-(I), [^11C]6,7-Dichloro-5-(2-fluoro-5-hydroxy-phenyl)-1-methyl-3H-1,4-benzodiazepin-2-one]",Brain clearance,GABAA γ1 receptor [5],Slower clearance
"Cc1ccc2c(c1Cl)C(c1cc(O)ccc1F)=NCC(=O)N2[11CH3] [[^11C]-(II), [^11C]6-Chloro-5-(2-fluoro-5-hydroxy-phenyl)-1,7-dimethyl-3H-1,4-benzodiazepin-2-one]",Time of brain uptake peaks,GABAA γ1 receptor [5]; comparison of tracers,earlier peaks than [^11C]-(I)
